In patent US6586613B1, “Substituted tetrahydronaphthaline and analogous compounds” (Bayer Aktiengellschaft, priority 1997, dated 2003):

How the values were obtained:
transgenic hCETP mice = experiment: In vivo activity in transgenic hCETP mice (lipoproteins and triglycerides in serum); conditions: 30 ppm via the feed, after one week
Description: In vivo Activity in Transgenic hCETP Mice
The substances to be tested were administered to transgenic mice, which were bred in our own laboratory (Dinchuck, Hart, Gonzalez, Karmann, Schmidt, Wirak; BBA (1995), 1295, 301), via the feed. Prior to the beginning of the experiment, blood samples were taken retro-orbitally from the mice to determine cholesterol and triglycerides in the serum. The serum was obtained as described above for hamsters by incubation at 4° C. overnight and subsequent centrifugation at 6000×g. After one week, blood samples were again taken from the mice to determine lipoproteins and triglycerides. The change of the measured parameters are expressed as a change in percent based on the initial value.

CETP activity = experiment: Ex vivo activity: CETP activity in serum of treated hamsters; conditions: Syrian gold hamsters; for ED50 for ex vivo activity: CETP activity in serum; for % inhibition at 3 mg/kg: ex vivo CETP activity in serum
Description: Ex vivo Activity of the Compounds According to the Invention
Syrian gold hamsters, which have been bred in our own laboratory, are anaesthetized after 24 hours of fasting (0.8 mg/kg of atropine, 0.8 mg/kg of Ketavet® s.c., 30′ later 50 mg/kg of nembutal i.p.). The jugular vein is subsequently exposed and cannulated. The test substance is dissolved in a suitable solvent (usually adalate placebo solution: 60 g of glycerol, 100 ml of H2O, ad 1000 ml PEG-400) and administered to the animals via a PE catheter, which is introduced into the jugular vein. The same volume of solvent without test substance is administered to the control animals. The vein is subsequently tied off and the wound is closed.
The test substances can also be administered p.o. by dissolving the substances in DMSO and suspending them in 0.5% tylose and administering them using a pharyngeal tube. Identical volumes of solvent without test substance are administered to the control animals.
At different intervals—up to 24 hours after the administration—blood samples are taken from the animals by puncture of the retro-orbital venous plexus (approximately 250 μl). Coagulation is completed by incubation at 4° C. overnight, and the samples are subsequently centrifuged at 6000×g for 10 minutes. The CETP activity is determined in the resulting serum using the modified CETP test. The transfer of ^3H-cholesterol ester from HD-lipoproteins to biotinylated LD-lipoproteins is measured as described above for the CETP test.
The reaction is terminated by addition of Streptavidin-SPA® beads (Amersham), and the transferred radioactivity is directly determined in a liquid scintillation counter.
The test protocol is carried out as described under “CETP test”. However, to test the sera, 10 μl of CETP are replaced by 10 μl of the appropriate serum samples. Corresponding incubations of sera of untreated animals serve as controls.
The activity that is transferred in the control experiments using control sera is classified as 100% transfer. The substance concentration at which this transfer is reduced by half is stated as the ED50 value.

Syrian gold hamsters = experiment: In vivo activity: HDL increase after oral administration to hamsters; conditions: perorally
Description: In vivo Activity of the Compounds According to the Invention
In experiments for assessing the oral activity on lipoproteins and triglycerides, test substance, dissolved in DMSO and suspended in 0.5% tylose, is administered perorally by means of a pharyngeal tube to Syrian gold hamsters which have been bred in our own laboratory. To determine the CETP activity, blood samples (approximately 250 μl) are taken by retro-orbital puncture prior to the start of the experiment. The test substances are subsequently administered perorally using a pharyngeal tube. Identical volumes of solvent without test substance are administered to the control animals. […]
Coagulation is completed by incubation at 4° C. overnight, and the samples are subsequently centrifuged at 6000×g for 10 minutes. The content of cholesterol and triglycerides in the resulting serum is assessed using modified commercially available enzyme tests (cholesterol enzymatic 14366 Merck, triglycerides 14364 Merck). […]
100 μl of serum dilution and 100 μl of test substance are transferred into 96-well-plates and incubated at room temperature for 10 minutes. The optical density is subsequently determined at a wavelength of 492 nm using an automatic plate reader.
The triglyceride and cholesterol concentrations of the samples are determined with the aid of a standard curve measured in parallel. […]

[1] = molecular target: T1, cholesterol ester transfer protein (CETP) (Homo sapiens, UniProt P11597); experiment: CETP inhibition test (transfer of 3H-cholesterol ester from HDL to biotinylated LDL, SPA); type: biochemical; conditions: CETP partially purified from human plasma; 37° C., 18 h
T1 construct: CETP is obtained in partially purified form from human plasma by differential centrifugation and column chromatography; from tissue; host or cells: human plasma
T1 sequence (P11597 18-493): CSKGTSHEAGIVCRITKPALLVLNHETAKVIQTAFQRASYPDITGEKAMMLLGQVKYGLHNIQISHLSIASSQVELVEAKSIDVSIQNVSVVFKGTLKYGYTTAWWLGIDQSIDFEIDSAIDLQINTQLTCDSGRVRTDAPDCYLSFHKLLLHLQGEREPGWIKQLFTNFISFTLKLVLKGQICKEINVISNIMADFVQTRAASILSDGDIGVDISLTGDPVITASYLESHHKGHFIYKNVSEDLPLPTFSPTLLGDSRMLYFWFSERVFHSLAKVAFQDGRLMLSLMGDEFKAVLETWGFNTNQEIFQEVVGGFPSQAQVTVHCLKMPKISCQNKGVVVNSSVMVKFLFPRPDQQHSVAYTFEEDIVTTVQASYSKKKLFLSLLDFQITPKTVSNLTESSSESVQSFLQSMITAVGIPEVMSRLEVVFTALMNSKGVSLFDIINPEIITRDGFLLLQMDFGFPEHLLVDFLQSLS
Description: CETP is obtained in partially purified form from human plasma by differential centrifugation and column chromatography and used for the test. For this purpose, human plasma is adjusted to a density of 1.21 g per ml using NaBr and centrifuged at 50,000 rpm at 4° C. for 18 h. The bottom fraction (d>1.21 g/ml) is applied to a Sephadex®Phenyl-Sepharose 4B (Pharmacia) column, washed with […]/0.001 M TrisHCl pH 7.4 and subsequently eluted using dist. water. The CETP-active fractions are pooled, dialysed against 50 mM Na-acetate pH 4.5 and applied to a CM-Sepharose® (Pharmacia) column. Elution is subsequently carried out using a linear gradient (0-1 M NaCl). The pooled CETP fractions are dialysed against 10 mM TrisHCl pH 7.4 and subsequently purified further by chromatography over a Mono Q® column (Pharmacia).
Preparation of Radioactively Labelled HDL
50 ml of fresh human EDTA plasma is adjusted to a density of 1.12 using NaBr and centrifuged at 4° C. in a Ty 65 rotor at 50,000 rpm for 18 h. The upper phase is used to obtain cold LDL. […]
To assess the CETP activity, the transfer of ^3H-cholesterol ester from human HD-lipoproteins to biotinylated LD-lipoproteins is measured.
The reaction is terminated by addition of Streptavidin-SPA® beads (Amersham) and the transferred radioactivity is directly measured in a liquid scintillation counter. […]

Compound | HDL, change in percent based on the initial value (transgenic hCETP mice) | LDL, change in percent based on the initial value (transgenic hCETP mice) | Triglycerides, change in percent based on the initial value (transgenic hCETP mice) | ED50 for ex vivo activity (CETP activity) | % inhibition at 3 mg/kg (CETP activity) | % HDL increase (Syrian gold hamsters; dose 2 × 1 mg/kg) | IC50 [1] | % HDL increase (Syrian gold hamsters; dose 2 × 0.3 mg/kg)
CC(C)c1cc2c(c(-c3ccc(F)cc3)c1[C@@H](F)c1ccc(C(F)(F)F)cc1)[C@@H](O)CC1(CCC1)C2 [Example 15, (S)-8-Hydroxy-1-(4-fluorophenyl)-2-[(S)-fluoro-(4-trifluoromethyl-phenyl)-methyl]-3-isopropyl-6-spiro-cyclobutyl-5,6,7,8-tetrahydronaphthalene] | +60% | −18% | −15% |  |  |  |  | 
CC(C)c1cc2c(c(-c3ccc(F)cc3)c1[C@@H](F)c1ccc(C(F)(F)F)cc1)[C@@H](O)CC(C)(C)C2 [Example 25] |  |  |  | <0.3 mg/kg | 83.1% | +15% | 3 nM | 
O[C@H]1CC2(CCC2)Cc2cc(C3CCCC3)c([C@@H](F)c3ccc(C(F)(F)F)cc3)c(-c3ccc(F)cc3)c21 [Example 31] |  |  |  | <0.3 mg/kg | 72.3% |  | 2.7 nM | +19%
